Results on 32 compounds are retold here after patent US10913736B2 (UNIVERSITY OF WASHINGTON, priority 2014, dated 2021).

For one assay, the target named is MetRS (T. brucei) (Trypanosoma brucei brucei, UniProt Q38C91). In words: MetRS (T. brucei) ATP depletion assay using Kinase-Glo. The format is biochemical. A general note: Kinase-Glo reads ATP consumption through a luciferase reaction.
A further assay deals with T. brucei. Briefly: Growth inhibition assay of T. brucei cell cultures (Alamar Blue, 48 h). The format is cell-based. For orientation: Alamar Blue is a resazurin reagent that responds to reducing activity.
[1] abbreviates: Trypanosoma brucei; read-out: B) T. brucei EC50.

Molecules are shown by their SMILES. Several values for one entry are separate records, joined by “and”; a condition that tells them apart may be missing. Identical values can stand only once. Like-named read-outs stand apart in the source and are kept apart here.

Sequence of MetRS (T. brucei) (Q38C91 entry or part of it): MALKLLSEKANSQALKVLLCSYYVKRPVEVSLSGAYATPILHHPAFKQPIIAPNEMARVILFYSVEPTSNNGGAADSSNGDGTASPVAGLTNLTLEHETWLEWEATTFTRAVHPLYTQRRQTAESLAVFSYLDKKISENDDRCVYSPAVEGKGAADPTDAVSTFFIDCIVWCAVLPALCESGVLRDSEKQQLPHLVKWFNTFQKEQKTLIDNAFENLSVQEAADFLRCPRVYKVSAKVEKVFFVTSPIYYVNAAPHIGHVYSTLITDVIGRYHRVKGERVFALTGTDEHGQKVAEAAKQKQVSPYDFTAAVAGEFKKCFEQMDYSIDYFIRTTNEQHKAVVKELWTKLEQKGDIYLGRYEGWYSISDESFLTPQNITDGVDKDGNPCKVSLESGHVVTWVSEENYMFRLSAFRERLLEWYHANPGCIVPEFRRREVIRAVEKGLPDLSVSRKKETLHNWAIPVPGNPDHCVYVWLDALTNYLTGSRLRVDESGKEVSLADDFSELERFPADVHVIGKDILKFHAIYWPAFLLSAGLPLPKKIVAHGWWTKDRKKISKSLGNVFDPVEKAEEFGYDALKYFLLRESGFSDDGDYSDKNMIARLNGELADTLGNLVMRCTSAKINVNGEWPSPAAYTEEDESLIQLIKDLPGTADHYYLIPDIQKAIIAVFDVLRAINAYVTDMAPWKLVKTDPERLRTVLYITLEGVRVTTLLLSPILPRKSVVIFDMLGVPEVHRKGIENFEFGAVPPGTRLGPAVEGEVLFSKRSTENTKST

At MetRS (T. brucei), `CN(CCNCc1cc(Cl)cc(Cl)c1)c1nc2nc(Cl)c(Br)cc2[nH]1` [Compound 1894, 6-bromo-5-chloro-N-(2-{[(3,5-dichlorophenyl)methyl]amino}ethyl)-N-methyl-3H-imidazo[4,5-b]pyridin-2-amine] came in with an IC50 of 0.179 µM. The EC50 in the assay on T. brucei (setting [1]) was determined as 2.89 µM.

Turning to `Clc1cc(Cl)cc(CNCCSc2nc3nc(Cl)ccc3[nH]2)c1` [Compound 1896, [2-({5-chloro-1H-imidazo[4,5-b]pyridin-2-yl}sulfanyl)ethyl][(3,5-dichlorophenyl)methyl]amine], on MetRS (T. brucei), half-maximal inhibition (IC50) was put at 1.05 µM. Besides, the 50% effective concentration (EC50) in the assay on T. brucei (setting [1]) was 1.4 µM.

As to `Clc1cc(Cl)cc(CO[C@H]2CCCN(c3nc4nc(Cl)ccc4[nH]3)C2)c1` [Compound 1898], the IC50 against MetRS (T. brucei) turned out to be 0.196 µM. The 50% effective concentration (EC50) with T. brucei (setting [1]) turned out to be 8.8 µM.

As to `CC(=O)N(Cc1cc(Cl)cc(Cl)c1)[C@H]1CCCN(c2nc3nc(F)ccc3[nH]2)C1` [Compound 1901, (S)—N-(3,5-dichlorobenzyl)-N-(1-(5-fluoro-1H-imidazo[4,5-b]pyridin-2-yl)piperidin-3-yl)acetamide], the IC50 at MetRS (T. brucei) worked out at 0.692 µM. Further, the EC50 in the assay with T. brucei (setting [1]) was 5.1 µM.

In turn, `Clc1cc(Cl)c(Cl)c(CN[C@H]2CCCN(c3nc4nc(Cl)ccc4[nH]3)C2)c1` [Compound 1902, (S)-1-(5-chloro-1H-imidazo[4,5-b]pyridin-2-yl)-N-(2,3,5-trichlorobenzyl)piperidin-3-amine] yielded an IC50 against MetRS (T. brucei) of 0.018 µM. In addition, the EC50 with T. brucei (setting [1]) turned out to be 0.354 µM.

At MetRS (T. brucei), `Clc1cc(Cl)cc(CNC2CCCCN(c3nc4nc(Cl)ccc4[nH]3)C2)c1` (stereo not drawn) [Compound 1903, 1-(5-chloro-1H-imidazo[4,5-b]pyridin-2-yl)-N-(3,5-dichlorobenzyl) azepan-3-amine] had an IC50 of 0.682 µM. Also, the EC50 in the assay on T. brucei (setting [1]) was 1.81 µM.

Turning to `Clc1cc(Cl)cc(CO[C@H]2CCCN(c3nc4nc(Cl)c(Br)cc4[nH]3)C2)c1` [Compound 1904, (S)-6-bromo-5-chloro-2-(3-((3,5-dichlorobenzyl)oxy)piperidin-1-yl)-1H-imidazo[4,5-b]pyridine], the IC50 at MetRS (T. brucei) was over 10 µM. For the same compound, the EC50 with T. brucei (setting [1]) was over 20 µM.

`Clc1cc(Cl)c(Cl)c(CN[C@H]2CCCN(c3nc4nc(Cl)c(Br)cc4[nH]3)C2)c1` [Compound 1905, (S)-1-(6-bromo-5-chloro-1H-imidazo[4,5-b]pyridin-2-yl)-N-(2,3,5-trichlorobenzyl)piperidin-3-amine] displayed an IC50 against MetRS (T. brucei) of 4.31 µM. Besides, the EC50 in the assay with T. brucei (setting [1]) was over 20 µM.

Consider `OC1N[C@@H](Cc2ccc(Cl)cc2Cl)C(O)N1Cc1nc2ccccc2[nH]1` (stereo partly drawn) [Compound 1906, (5S)-3-((H-benzo[d]imidazol-2-yl)methyl)-5-(2,4-dichlorobenzyl)imidazolidine-2,4-diol], for which the IC50 on MetRS (T. brucei) was 2.94 µM. Besides, the EC50 in the assay on T. brucei (setting [1]) amounted to 6.23 µM.

In the case of `COc1c(Br)cc(Br)cc1CN[C@H]1CCCN(c2nc3nc(Cl)ccc3[nH]2)C1` [Compound 1909, (S)-1-(5-chloro-1H-imidazo[4,5-b]pyridin-2-yl)-N-(3,5-dibromo-2-methoxybenzyl)piperidin-3-amine], on MetRS (T. brucei), the IC50 was determined as 0.02 µM. For the same compound, the EC50 with T. brucei (setting [1]) worked out at 0.334 µM.

At MetRS (T. brucei), `Clc1cc(Cl)cc(CNCC2CCN2c2nc3nc(Cl)ccc3[nH]2)c1` (stereo not drawn) [Compound 1915, 1-(1-(5-chloro-1H-imidazo[4,5-b]pyridin-2-yl)azetidin-2-yl)-N-(3,5-dichlorobenzyl)methanamine] had an IC50 of 0.17 µM. For the same compound, the EC50 in the assay with T. brucei (setting [1]) was determined as 3.1 µM.

At MetRS (T. brucei), `COc1ccc(Oc2cccc(NCCc3nc4ccccc4[nH]3)n2)c(Cl)c1` [Compound 1918, N-[2-(1H-1,3-benzodiazol-2-yl)ethyl]-6-(2-chloro-4-methoxyphenoxy)pyridin-2-amine] came in with a concentration for half-maximal inhibition (IC50) of 1.11 µM. Moreover, in the assay on T. brucei (setting [1]), the EC50 worked out at 9.56 µM.

Turning to `CCOc1c(Cl)cc(Cl)cc1CN[C@H]1CCCN(c2nc3nc(Cl)ccc3[nH]2)C1` [Compound 1920, (S)-1-(5-chloro-1H-imidazo[4,5-b]pyridin-2-yl)-N-(3,5-dichloro-2-ethoxybenzyl)piperidin-3-amine], the IC50 against MetRS (T. brucei) was determined as 0.016 µM. In addition, the EC50 with T. brucei (setting [1]) was 0.111 µM.

Compound `Clc1cc(Cl)cc(NC[C@H]2CCCN(c3nc4nc(Cl)ccc4[nH]3)C2)c1` [Compound 1922, (R)-3,5-dichloro-N-((1-(5-chloro-1H-imidazo[4,5-b]pyridin-2-yl)piperidin-3-yl)methyl)aniline] showed an IC50 at MetRS (T. brucei) of 0.14 µM. For the same compound, in the assay on T. brucei (setting [1]), the EC50 was 2.76 µM.

For `COc1ccc(Oc2cccc(NCc3nc4ccccc4[nH]3)n2)c(Cl)c1` [Compound 1924, N-((1H-benzo[d]imidazol-2-yl)methyl)-6-(2-chloro-4-methoxyphenoxy)pyridin-2-amine], the IC50 on MetRS (T. brucei) was determined as 0.165 µM. Moreover, the EC50 in the assay with T. brucei (setting [1]) came to 3.28 µM.

As for `CCCOc1c(Cl)cc(Cl)cc1CN[C@H]1CCCN(c2nc3nc(Cl)ccc3[nH]2)C1` [Compound 1927, (S)-1-(5-chloro-1H-imidazo[4,5-b]pyridin-2-yl)-N-(3,5-dichloro-2-propoxybenzyl)piperidin-3-amine], at MetRS (T. brucei), the 50% inhibitory concentration (IC50) stood at 0.047 µM. Moreover, the EC50 in the assay on T. brucei (setting [1]) amounted to 0.827 µM.

On to `C=CCOc1c(Cl)cc(Cl)cc1CN[C@H]1CCCN(c2nc3nc(Cl)ccc3[nH]2)C1` [Compound 1928, (S)—N-(2-(allyloxy)-3,5-dichlorobenzyl)-1-(5-chloro-1H-imidazo[4,5-b]pyridin-2-yl)piperidin-3-amine], for which the 50% inhibitory concentration (IC50) against MetRS (T. brucei) came out at 0.021 µM. For the same compound, the EC50 with T. brucei (setting [1]) was determined as 0.326 µM.

Take `Clc1cc(Cl)c(OCC2CC2)c(CN[C@H]2CCCN(c3nc4nc(Cl)ccc4[nH]3)C2)c1` [Compound 1929, (S)-1-(5-chloro-1H-imidazo[4,5-b]pyridin-2-yl)-N-(3,5-dichloro-2-(cyclopropylmethoxy)benzyl)piperidin-3-amine]: on MetRS (T. brucei), 0.029 µM corresponded to half-maximal inhibition (IC50). The EC50 in the assay on T. brucei (setting [1]) is 0.511 µM.

`Clc1cc(Cl)c(OC2CC2)c(CN[C@H]2CCCN(c3nc4nc(Cl)ccc4[nH]3)C2)c1` [Compound 1930, (S)-1-(5-chloro-1H-imidazo[4,5-b]pyridin-2-yl)-N-(3,5-dichloro-2-cyclopropoxybenzyl)piperidin-3-amine] showed an IC50 on MetRS (T. brucei) of 0.389 µM. In addition, the EC50 in the assay with T. brucei (setting [1]) stood at 3.12 µM.

The compound `CC(C)Oc1c(Cl)cc(Cl)cc1CN[C@H]1CCCN(c2nc3nc(Cl)ccc3[nH]2)C1` [Compound 1931, (S)-1-(5-chloro-1H-imidazo[4,5-b]pyridin-2-yl)-N-(3,5-dichloro-2-isopropoxybenzyl)piperidin-3-amine] displayed an IC50 at MetRS (T. brucei) of 0.305 µM. In the assay on T. brucei (setting [1]), the EC50 is 1.7 µM.

For the compound `CC(=O)N(Cc1cc(Cl)cc(Cl)c1)[C@@H]1CCC[C@H](c2nc3nc(F)ccc3[nH]2)C1` [Compound 1932, N-(3,5-dichlorobenzyl)-N-((1R,3S)-3-(5-fluoro-1H-imidazo[4,5-b]pyridin-2-yl)cyclohexyl)acetamide], on MetRS (T. brucei), the IC50 was determined as 0.518 µM. The EC50 in the assay on T. brucei (setting [1]) stood at 8.91 µM.

In the case of `O=C1N[C@@H](Cc2ccc(Cl)cc2Cl)C(O)N1Cc1nc2ccccc2[nH]1` (stereo partly drawn) [Compound 1934, (4S)-1-((1H-benzo[d]imidazol-2-yl)methyl)-4-(2,4-dichlorobenzyl)-5-hydroxyimidazolidin-2-one], the IC50 against MetRS (T. brucei) worked out at 0.118 µM. In addition, the half-maximal effective concentration (EC50) with T. brucei (setting [1]) amounted to 2 µM.

At MetRS (T. brucei), `O=C(NCc1nc2ccccc2[nH]1)N[C@H](CO)Cc1ccc(Cl)cc1Cl` [Compound 1935, 1-((1H-benzo[d]imidazol-2-yl)methyl)-3-((S)-3-(2,4-dichlorophenyl)-1-hydroxypropan-2-yl)urea] displayed an IC50 of over 10 µM. In addition, the EC50 in the assay on T. brucei (setting [1]) came to 9.36 µM.

Consider `OC1NC(Cc2ccc(Cl)cc2Cl)=CN1Cc1nc2ccccc2[nH]1` (stereo not drawn) [Compound 1936, 3-((1H-benzo[d]imidazol-2-yl)methyl)-5-(2,4-dichlorobenzyl)-2,3-dihydro-1H-imidazol-2-ol], for which the IC50 on MetRS (T. brucei) is 0.065 µM. In the assay on T. brucei (setting [1]), the EC50 was found to be 1.83 µM.

For the compound `CCOc1c(Br)cc(Cl)cc1CN[C@H]1CCCN(c2nc3nc(Cl)ccc3[nH]2)C1` [Compound 1937, (S)—N-(3-bromo-5-chloro-2-ethoxybenzyl)-1-(5-chloro-1H-imidazo[4,5-b]pyridin-2-yl)piperidin-3-amine], 0.019 µM corresponded to half-maximal inhibition at MetRS (T. brucei) (IC50). Moreover, the EC50 with T. brucei (setting [1]) turned out to be 0.23 µM.

As for `CCNc1c(Cl)cc(Cl)cc1CN[C@H]1CCCN(c2nc3nc(Cl)ccc3[nH]2)C1` [Compound 1940, (S)-1-(5-chloro-1H-imidazo[4,5-b]pyridin-2-yl)-N-(3,5-dichloro-2-(ethylamino)benzyl)piperidin-3-amine], the IC50 on MetRS (T. brucei) was 0.042 µM. Also, the concentration for a half-maximal effect (EC50) in the assay with T. brucei (setting [1]) was 0.359 µM.

On MetRS (T. brucei), `COc1ccc(Oc2cccc(NCc3nc4ccccc4[nH]3)c2)c(Cl)c1` [Compound 1941, N-(1H-1,3-benzodiazol-2-ylmethyl)-3-(2-chloro-4-methoxyphenoxy)aniline] showed an IC50 of 0.273 µM. Also, in the assay on T. brucei (setting [1]), the EC50 worked out at 3.13 µM.

In the case of `CC(=O)N(C1CCNc2c(Cl)cc(Cl)cc21)[C@H]1CCCN(c2nc3nc(Cl)ccc3[nH]2)C1` (stereo partly drawn) [Compound 1943], the IC50 against MetRS (T. brucei) was 2.13 µM and 3.54 µM. Also, the EC50 in the assay with T. brucei (setting [1]) is 0.419 µM; with T. brucei (read-out: B) T. brucei EC50) it was 0.389 µM.

As to `O=C(CCc1nc2nc(Cl)ccc2[nH]1)NCc1cc(Cl)cc(Cl)c1` [Compound 1944, 3-{5-chloro-1H-imidazo[4,5-b]pyridin-2-yl}-N-[(3,5-dichlorophenyl)methyl]propanamide], the half-inhibitory concentration (IC50) against MetRS (T. brucei) was 0.535 µM. Also, the EC50 in the assay on T. brucei (setting [1]) turned out to be 11.7 µM.

Regarding `CC(=O)N1CCC(N(C(C)=O)[C@H]2CCCN(c3nc4nc(Cl)ccc4[nH]3)C2)c2cc(Cl)cc(Cl)c21` (stereo partly drawn) [Compound 1945], at MetRS (T. brucei), the IC50 was over 10 µM. Moreover, in the assay with T. brucei (setting [1]), the EC50 came to 13.7 µM.

As to `O=C(CSc1nc2ccc(Cl)nc2[nH]1)NCc1cc(Cl)cc(Cl)c1` [Compound 1951, 2-({5-chloro-3H-imidazo[4,5-b]pyridin-2-yl}sulfanyl)-N-[(3,5-dichlorophenyl)methyl]acetamide], the midpoint of inhibition at MetRS (T. brucei), the IC50, lay at 0.288 µM. For the same compound, the concentration giving a half-maximal response (EC50) in the assay with T. brucei (setting [1]) worked out at 0.664 µM.

With `Clc1cc(Cl)cc(CNc2cccc(-c3nc4ccc(Cl)cc4[nH]3)c2)c1` [Compound 1952, 3-(6-chloro-1H-1,3-benzodiazol-2-yl)-N-[(3,5-dichlorophenyl)methyl]aniline], the half-maximal inhibitory concentration (IC50) against MetRS (T. brucei) was 2.28 µM and 1.74 µM. For the same compound, the results for the EC50 in the assay with T. brucei (setting [1]) and in the assay with T. brucei (read-out: B) T. brucei EC50) were 0.187 µM and 0.367 µM, respectively.

Broadly, the IC50 is the concentration needed to halve the response being measured. Read a high IC50 as weaker potency in that assay. A word on the EC50: it is the concentration that produces a half-maximal response.
